Results: patent publication US20100267561A1, “HERBICIDAL PYRIDAZINONE DERIVATIVES” (priority 2007, published 2010)
Like-named read-outs stand apart in the source and are kept apart here.

How the values were obtained:
Assay in all cases: Test B pre-/postemergence plant response
Type in all cases: in vivo
[1] = test system: surinam grass (Brachiaria decumbens); conditions: Urochloa decumbens, pre-emergence; Preemergence, 125 g ai/ha; scale 0 to 100; read-out: Plant response rating, Surinam Grass
Outline: (§1)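 Visual scoring from 0 (no effect) to 100 (complete control) against untreated controls was done 13 to 15 days after greenhouse treatment. Chemicals were formulated in a surfactant-containing non-phytotoxic solvent and applied to soil preemergence or to 1- to 4-leaf (2-18 cm) plants postemergence.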

kochia (Kochia scoparia) = conditions: Postemergence
Outline: as §1

soybean (Glycine max) = conditions: Glycine max, read-out: Plant response rating, Soybean; for plant injury at 16 g/ha: 16 g ai/ha; for plant injury at 31 g/ha: 31 g ai/ha, 100 complete control; for plant injury at 62 g/ha: 62 g ai/ha; for plant injury at 125 g/ha: 125 g ai/ha
Outline: as §1

[2] = test system: catchweed bedstraw (Galium aparine); conditions: Galium aparine, pre-emergence, Preemergence, read-out: Plant response rating, Galium
Outline: as §1

[3] = test system: yellow nutsedge (Cyperus esculentus); conditions: Cyperus, read-out: Plant response rating, Nutsedge, Yellow; for pest or weed control at 16 g/ha: 16 g ai/ha; for pest or weed control at 31 g/ha: 31 g ai/ha, 100 complete control; for pest or weed control at 62 g/ha: 62 g ai/ha; for pest or weed control at 125 g/ha: 125 g ai/ha
Outline: as §1

[4] = test system: cocklebur (Xanthium strumarium); conditions: Xanthium strumarium, read-out: Plant response rating, Cocklebur; for pest or weed control at 62 g/ha: 62 g ai/ha; for pest or weed control at 125 g/ha: 125 g ai/ha
Outline: as §1

[5] = test system: morningglory (Ipomoea coccinea); conditions: Ipomoea, read-out: Plant response rating, Morningglory; for pest or weed control at 16 g/ha: 16 g ai/ha; for pest or weed control at 31 g/ha: 31 g ai/ha, 100 complete control; for pest or weed control at 62 g/ha: 62 g ai/ha; for pest or weed control at 125 g/ha: 125 g ai/ha
Outline: as §1

[6] = test system: downy bromegrass (Bromus tectorum); conditions: Bromus tectorum, read-out: Plant response rating, Bromegrass, Downy; for pest or weed control at 16 g/ha: 16 g ai/ha; for pest or weed control at 31 g/ha: 31 g ai/ha, 100 complete control; for pest or weed control at 62 g/ha: 62 g ai/ha; for pest or weed control at 125 g/ha: 125 g ai/ha
Outline: as §1

[7] = post-emergence, Postemergence, scale 0 to 100
[8] = post-emergence, Postemergence, scale 0 to 100, 0 no effect
[9] = pre-emergence, Preemergence, scale 0 to 100 (0 no effect, 100 complete control)
[10] = pre-emergence, Preemergence, 0 to 100 scale, 0 no effect
[11] = pre-emergence, Preemergence, scale 0 to 100

## CCc1cc(-c2ccc(C(F)(F)F)cc2)nn1-c1c(O)cnn(C)c1=O [Compound 11, 4-[5-ethyl-3-[4-(trifluoromethyl)phenyl]-1H-pyrazol-1-yl]-5-hydroxy-2-methyl-3(2H)-pyridazinone]
[1]
  pest or weed control at 125 g/ha: 100%
Kochia (Kochia scoparia); 16 g ai/ha, scale 0 to 100
  Plant response rating, Kochia: 0
Kochia (Kochia scoparia); 31 g ai/ha, scale 0 to 100, 0 no effect, 100 complete control
  Plant response rating, Kochia: 0
Kochia (Kochia scoparia); 62 g ai/ha, scale 0 to 100
  Plant response rating, Kochia: 0
Kochia (Kochia scoparia); 125 g ai/ha, scale 0 to 100
  Plant response rating, Kochia: 0
Soybean (Glycine max); [7]
  plant injury at 16 g/ha: 0%
  plant injury at 62 g/ha: 0%
  plant injury at 125 g/ha: 0%
Soybean (Glycine max); [8]
  plant injury at 31 g/ha: 0%
Soybean (Glycine max); [9]
  plant injury at 16 g/ha: 0%
Soybean (Glycine max); [10]
  plant injury at 31 g/ha: 0%
Soybean (Glycine max); [11]
  plant injury at 62 g/ha: 0%
  plant injury at 125 g/ha: 0%
[2]; 16 g ai/ha, scale 0 to 100 (0 no effect, 100 complete control)
  pest or weed control at 16 g/ha: 0%
[2]; 31 g ai/ha, 0 to 100 scale, 0 no effect, 100 complete control
  pest or weed control at 31 g/ha: 0%
[2]; 62 g ai/ha, scale 0 to 100
  pest or weed control at 62 g/ha: 0%
[2]; 125 g ai/ha, scale 0 to 100
  pest or weed control at 125 g/ha: 0%
[3]; [7]
  pest or weed control at 16 g/ha: 0%
  pest or weed control at 62 g/ha: 0%
  pest or weed control at 125 g/ha: 0%
[3]; [8]
  pest or weed control at 31 g/ha: 0%
[3]; [9]
  pest or weed control at 16 g/ha: 0%
[3]; [10]
  pest or weed control at 31 g/ha: 0%
[3]; [11]
  pest or weed control at 62 g/ha: 0%
  pest or weed control at 125 g/ha: 0%
[4]; post-emergence, Postemergence, 16 g ai/ha, scale 0 to 100
  pest or weed control at 16 g/ha: 0%
[4]; post-emergence, Postemergence, 31 g ai/ha, scale 0 to 100, 0 no effect, 100 complete control
  pest or weed control at 31 g/ha: 0%
[4]; [7]
  pest or weed control at 62 g/ha: 0%
  pest or weed control at 125 g/ha: 0%
[4]; [11]
  pest or weed control at 62 g/ha: 0%
  pest or weed control at 125 g/ha: 0%
[5]; [7]
  pest or weed control at 16 g/ha: 0%
  pest or weed control at 62 g/ha: 0%
  pest or weed control at 125 g/ha: 0%
[5]; [8]
  pest or weed control at 31 g/ha: 0%
[5]; [9]
  pest or weed control at 16 g/ha: 0%
[5]; [10]
  pest or weed control at 31 g/ha: 0%
[5]; [11]
  pest or weed control at 62 g/ha: 0%
  pest or weed control at 125 g/ha: 0%
[6]; [7]
  pest or weed control at 16 g/ha: 85%
  pest or weed control at 62 g/ha: 98%
  pest or weed control at 125 g/ha: 100%
[6]; [8]
  pest or weed control at 31 g/ha: 90%
[6]; [9]
  pest or weed control at 16 g/ha: 50%
[6]; [10]
  pest or weed control at 31 g/ha: 95%
[6]; [11]
  pest or weed control at 62 g/ha: 98%
  pest or weed control at 125 g/ha: 100%
